Reference: patent US10960020B2, “Modulation of PCSK9 and LDLR through DRP1 inhibition” (THE BRIGHAM AND WOMEN'S HOSPITAL, INC., priority 2016, dated 2021)

Key:
[1] = test system: HNF1A, SREBP-2, and SREBP-1a; assay: Real time PCR, PCSK9 regulating transcription factors; type: cell-based; settings: HepG2 and primary human hepatocytes, Mdivi-1 50 μM, 24 hours
Text: (§1) Human cells and mouse liver was homogenized with TriZolTM (Life Technologies, Grand Island, N.Y.) to isolate RNA. QuantiTectTM Reverse Transcription Kit (Qiagen, Hilden, Germany) was used for reverse transcription on total RNA. cDNA was generated using the Quanta gScriptTM cDNA Synthesis Kit (Bioscience Inc., Gaithersburg, Md.). mRNA levels were quantified on a 7900HT real-time PCR system (Thermo Fisher Scientific) using TaqManTM real-time PCR with the following probes: Hs02758991_g1 (human GAPDH); Mm99999915_g1 (mouse Gapdh); Hs00236329 m1 (human BCL2L1); Hs00247147_m1 (human DRP1); Hs00545399_m1 (human PCSK9); Mm01263610_m1 (mouse Pcsk9); Hs00168352_m1 (human HMGCR); […]); Hs00181192_m1 (human LDLR); Mm00440169_m1 (mouse Ldlr); Hs01088691_m1 (human SREBP1); Mm00550338_m1 (mouse Srebp1); Hs00231674_m1 (human SREBP1a); custom primer (human SREBP1c); Hs01081784_m1 (human SREBP2); Mm01306292_m1 (mouse Srebp2); Hs01005622_m1 (human FASN); […]); Hs00167041_m1 (human HNF1A); Mm00493434_m1 (mouse Hnf1a); Hs00171168 (human APOE); Hs01059118_m1 (human ABCA1); Hs01103582_s1 (human JUN). Mouse SREBP-1c was analyzed by SYBERTM green PCR with the following primers: [NT] All expression levels were normalized to GAPDH using the ΔΔCT method.

[2] = test system: HepG2 cells; assay: Mitochondrial membrane potential by TMRE, HepG2; type: cell-based, human; settings: HepG2, Mdivi-1 50 μM, 24 hours
Method: Mitochondrial membrane potential was assessed by TMRE reagent (Abcam) as previously described^21.

[3] = test system: BECLIN1; assay: BECLIN1 mRNA and protein; type: cell-based, human; settings: 24 hours
Text: as §1, with “[…] Protein concentrations were determined by the Pierce BCA AssayTM (Thermo Fisher Scientific). […] Protein” for “All expression”, “β-ACTIN, α-TUBULIN, or LAMIN A/C with” for “GAPDH using”, “use of NIH ImageJ software for quantification.” for “ΔΔCT method.”

COc1cc(-n2c(S)nc3ccccc3c2=O)c(Cl)cc1Cl [Mdivi-1, 3-(2,4-Dichloro-5-methoxyphenyl)-2,3-dihydro-2-thioxo-4(1H)-quinazolinone]
Expression of HNF1A, SREBP-2, and SREBP-1a [1]: not changed | Mitochondrial function, assessed by mitochondrial membrane potential [2]: not noticeably different | BECLIN1 protein abundance ([3]; HepG2, Mdivi-1 50 μM): did not alter | BECLIN1 mRNA ([3]; human hepatocytes, Mdivi-1 50 μM): did not alter
